Reference: publication PMC10353390, “Biological and Structural Analyses of New Potent Allosteric Inhibitors of HIV-1 Integrase” (Antimicrobial Agents and Chemotherapy, 2023)
Read-outs that look alike come from different tables or passages of the source.

Assays:
[1] = system: HXB2 HIV-1 strain; assay: Multiple-round infection assay in MT4 cells, HXB2; format: cell-based; conditions: Human immunodeficiency virus 1, HXB2; multiple-round infection, MT4 cells; mean ± SD, n > 5; read-out: EC50 HXB2
Procedure: Antiretroviral activity of BDM-2 and its analogs was first evaluated in lymphoblastoid cell line MT4 and in primary human T lymphocytes using NL4-3 and HXB2 laboratory HIV-1 isolates.
(§1) MT4 cells growing exponentially at the density of 10^6/mL were infected with HIV-1 strain NL4-3 at a multiplicity of infection (MOI) of 0.001 for 2 h in the presence of different concentrations of compounds, and the CellTiter-Glo luminescent reagent (Promega) was used to quantify cell viability as described previously ([12]).

[2] = system: NL4-3 HIV-1 strain; assay: Multiple-round infection assay in MT4 cells, NL4-3; format: cell-based; conditions: MT4 cells
[3] = Cytotoxicity assay in MT4 cells; format: cell-based; conditions: human, MT4 cells (proliferating human T-cell line), CellTiter-Glo
Excerpt: Growth inhibition was monitored in a proliferating human T-cell line (MT4) with different concentrations of compounds, using the CellTiter-Glo luminescent reagent (Promega), as previously described ([12]).

[4] = system: lab-adapted and clinical HIV-1 isolates; assay: Infection assays in primary T CD4+ lymphocytes; format: cell-based; conditions: Human immunodeficiency virus 1, Lymphocyte
[5] = system: VSV-G-pseudotyped NL4-3Δenv-luc; assay: microbe, parasite or virus in culture; format: cell-based, HIV-1
[6] = system: recombinant NL4-3 viruses with polymorphisms at IN positions 124 and 125; assay: Multiple-round infection of MT4 cells with recombinant NL4-3 viruses polymorphic at IN positions 124 and 125; format: cell-based, HIV-1
Excerpt: Located on the HIV-1 IN CCD dimerization interface, the principal INLAI binding pocket overlaps with a hot spot of amino acid sequence polymorphism involving IN residues 124 and 125 ([16]). To test if the new INLAIs maintained antiviral activity against major polymorphisms, we introduced all major combinations of residues found in circulating HIV-1 strains at positions 124 and 125 into NL4-3 HIV-1 molecular clone. In total, we evaluated 15 such combinations that collectively covered 98% of all HIV-1 clade polymorphisms involving these positions ([48]). To gauge effects on the antiviral activity, we calculated the EC50 fold change (FC) relative to wild type NL4-3 HIV-1 strain that features Thr124 and Thr125 (TT; specific polymorphisms are referred to by a single letter amino acid code).
as §1

[7] = system: primary HIV-1 isolates with polymorphisms at IN positions 124 and 125; assay: Multiple-round infection of MT4 cells with primary HIV-1 isolates polymorphic at IN positions 124 and 125; format: cell-based; conditions: primary isolate
Procedure: Next, we evaluated the potency of the BDM-2 series of INLAIs against several primary HIV-1 isolates with polymorphisms at IN positions 124 and 125.
as §1

[8] = system: HIV-1 strains resistant to INSTIs, NRTIs, NNRTIs or PIs; format: cell-based
Procedure: To this end, we used both recombinant viruses constructed by introducing described drug resistance mutations into NL4-3 HIV-1 clone as well as drug-resistant clinical HIV-1 isolates.
as §1

[9] = INSTI-resistant, NL4-3 background
[10] = INSTI-resistant, primary patient-derived strain

C[C@@H]1CCO[C@H]2Cn3cc(C(=O)NCc4ccc(F)cc4F)c(=O)c(O)c3C(=O)N12 [DTG, dolutegravir, reference compound]
EC50 [1]: 1.9 ± 1 nM | EC90 ([2]; Human immunodeficiency virus 1, NL43, multiple-round infection, from dose response curves, read-out: EC90 NL4-3): 6.3 ± 4.4 nM | EC50 ([2]; Human immunodeficiency virus 1, NL43, multiple-round infection, mean ± SD, n > 5, read-out: EC50 NL4-3): 2.7 ± 1.3 nM | Selectivity index CC50/EC50 NL4-3 [2]: 18,888 | CC50 [3]: 51000 ± 28000 nM | EC50 ([4]; read-out: EC50 33913N (B)): 0.35 ± 0.42 nM | EC50 ([4]; read-out: EC50 HXB2 (B)): 0.17 ± 0.01 nM | EC50 ([4]; read-out: EC50 KER2008 (A)): 0.4 ± 0.21 nM | EC50 ([4]; read-out: EC50 NL4-3 (B)): 0.53 ± 0.16 nM | EC50 ([4]; read-out: EC50 NP1525 (CRF01_AE)): 0.21 ± 0.09 nM | EC50 ([4]; read-out: EC50 NP1538 (B)): 0.29 ± 0.13 nM | EC50 ratio (single/multiple-round infection) [5]: 0.16 | EC50 ([5]; Human immunodeficiency virus 1, NL43, MT4, read-out: EC50 in single-round infection): 0.44 ± 0.13 nM | Fold change in EC50 relative to parental NL4-3, AA ([6]; recombinant NL4-3, IN 124/125 AA): 1 | Fold change in EC50 relative to parental NL4-3, AM ([6]; recombinant NL4-3, IN 124/125 AM): 2 | Fold change in EC50 relative to parental NL4-3, AT ([6]; recombinant NL4-3, IN 124/125 AT): 1 | Fold change in EC50 relative to parental NL4-3, AV ([6]; recombinant NL4-3, IN 124/125 AV): 2 | Fold change in EC50 relative to parental NL4-3, GA ([6]; recombinant NL4-3, IN 124/125 GA): 2 | Fold change in EC50 relative to parental NL4-3, GT ([6]; recombinant NL4-3, IN 124/125 GT): 2 | Fold change in EC50 relative to parental NL4-3, NA ([6]; recombinant NL4-3, IN 124/125 NA): 1 | Fold change in EC50 relative to parental NL4-3, NT ([6]; recombinant NL4-3, IN 124/125 NT): 1 | Fold change in EC50 relative to parental NL4-3, NV ([6]; recombinant NL4-3, IN 124/125 NV): 2 | Fold change in EC50 relative to parental NL4-3, SA ([6]; recombinant NL4-3, IN 124/125 SA): 1 | Fold change in EC50 relative to parental NL4-3, ST ([6]; recombinant NL4-3, IN 124/125 ST): 2 | Fold change in EC50 relative to parental NL4-3, TA ([6]; recombinant NL4-3, IN 124/125 TA): 1 | Fold change in EC50 relative to parental NL4-3, TM ([6]; recombinant NL4-3, IN 124/125 TM): 2 | Fold change in EC50 relative to parental NL4-3, TV ([6]; recombinant NL4-3, IN 124/125 TV): 2 | Fold change in EC50 relative to parental NL4-3, CAM2BBY (CRF02) ([7]; IN 124/125 AA): 1 | Fold change in EC50 relative to parental NL4-3, E0836M4 (D) ([7]; IN 124/125 AA): 2 | Fold change in EC50 relative to parental NL4-3, KER2008 (A) ([7]; IN 124/125 AA): 1 | Fold change in EC50 relative to parental NL4-3, NP1525 (CRF01) ([7]; IN 124/125 AA): 2 | Fold change in EC50 relative to parental NL4-3, NP1695 (CRF02) ([7]; IN 124/125 AA): 2 | Fold change in EC50 relative to parental NL4-3, TZA125 (C) ([7]; IN 124/125 AA): 2 | Fold change in EC50 relative to parental NL4-3, KSM4030 (A) ([7]; IN 124/125 GA): 2 | Fold change in EC50 relative to parental NL4-3, vGA (C) ([7]; IN 124/125 GA): 2 | Fold change in EC50 relative to parental NL4-3, 99ET14 (C) ([7]; IN 124/125 NA): 2 | Fold change in EC50 relative to parental NL4-3, NP1538 (B) ([7]; IN 124/125 NA): 1 | Fold change in EC50 relative to parental NL4-3, vNA_1 (B) ([7]; IN 124/125 NA): 2 | Fold change in EC50 relative to parental NL4-3, vNA_2 (CRF02) ([7]; IN 124/125 NA): 2 | Fold change in EC50 relative to parental NL4-3, vNV (B) ([7]; IN 124/125 NV): 1 | Fold change in EC50 relative to parental NL4-3, vSA_1 (B) ([7]; IN 124/125 SA): 1 | Fold change in EC50 relative to parental NL4-3, vSA_2 (CRF02) ([7]; IN 124/125 SA): 2 | Fold change in EC50 relative to parental NL4-3, vTA_1 (B) ([7]; IN 124/125 TA): 1 | Fold change in EC50 relative to parental NL4-3, vTA_2 (CRF02) ([7]; IN 124/125 TA): 1 | Fold change in EC50 relative to NL4-3, G140S [8, 9]: 0.6 | Fold change in EC50 relative to NL4-3, G140S/Q148H [8, 9]: 2 | Fold change in EC50 relative to NL4-3, N155H [8, 9]: 0.3 | Fold change in EC50 relative to NL4-3, Q148H [8, 9]: 0.3 | Fold change in EC50 relative to NL4-3, Y143R [8, 9]: 0.4 | Fold change in EC50 relative to NL4-3, E92Q/N155H (pat.) [8, 10]: 1 | Fold change in EC50 relative to NL4-3, G140S/Q148H (pat.) [8, 10]: 3 | Fold change in EC50 relative to NL4-3, T97A/N155H (pat.) [8, 10]: 3 | Fold change in EC50 relative to NL4-3, NLAY351717 ([8]; NRTI-resistant clone): 0.4 | Fold change in EC50 relative to NL4-3, NLAY351753 ([8]; NRTI/NNRTI-resistant clone): 1 | Fold change in EC50 relative to NL4-3, K103N/Y181C ([8]; NRTI/NNRTIs group, NL4-3 background): 0.3 | Fold change in EC50 relative to NL4-3, ARP-4595 ([8]; PI-resistant virus): 1 | Fold change in EC50 relative to NL4-3, ARP-4596 ([8]; PI-resistant virus): 0.5 | Fold change in EC50 relative to NL4-3, ARP-11801 ([8]; PI-resistant virus): 1 | Fold change in EC50 relative to NL4-3, ARP-11803 ([8]; PI-resistant virus): 1 | Fold change in EC50 relative to NL4-3, ARP-11807 ([8]; PI-resistant virus): 2 | Fold change in EC50 relative to NL4-3, ARP-11808 ([8]; PI-resistant virus): 1
